Measurements published in patent US6737383B1, “Herbicidal oxadiazolidines” (priority 1999, dated 2004).

Columns and labels:
morningglory = assay: Test B pre/postemergence morningglory; type: in vivo, Ipomoea hederacea
Summary of the method: (§1)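 Test chemicals in a non-phytotoxic solvent mixture with surfactant were sprayed preemergence onto planted seeds and postemergence onto plants 2 to 18 cm tall (1- to 4-leaf stage). After twelve to sixteen days in a greenhouse, injury was visually rated against untreated controls from 0 (no effect) to 10 (complete control).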

rape = assay: Test B pre/postemergence rape; type: in vivo, Brassica napus
Summary of the method: as §1

wheat = assay: Test B pre/postemergence wheat; type: in vivo, Triticum aestivum
Summary of the method: as §1

duck salad = assay: Test B flood test duck salad; type: in vivo, Heteranthera limosa; details: Pre-emergence
Summary of the method: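 Read-out is a visual response score from 0 (no effect) to 10 (complete control), assigned by comparison with untreated controls. Treatment was applied at the 2-leaf stage, and plants stayed in the greenhouse for twelve to sixteen days before scoring.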

winter wheat [1] = assay: Test E winter wheat; type: in vivo, Triticum aestivum; details: Postemergence, 0 to 100 scale, 0 is no effect, 100 is complete control
Summary of the method: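 Visual evaluation versus untreated controls after about 21 to 28 days in the greenhouse. Compound was in a surfactant-containing non-phytotoxic solvent; postemergence plants were treated at the 1- to 4-leaf stage, grown in a 60:40 sandy loam and potting mix blend.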

blackgrass = assay: Test E blackgrass; type: in vivo, Alopecurus myosuroides; details: Preemergence
green foxtail = assay: Test E green foxtail; type: in vivo, Setaria viridis; details: Preemergence
Italian ryegrass = assay: Test E Italian ryegrass; type: in vivo, Lolium multiflorum; details: Preemergence
winter wheat [2] = assay: Test E winter wheat; type: in vivo, Triticum aestivum; details: Preemergence
wild oat = assay: Test E wild oat; type: in vivo, Avena fatua; details: Preemergence
winter barley = assay: Test E winter barley; type: in vivo, Hordeum vulgare; details: Preemergence
[3] = Preemergence, Rate 62 g/ha, scale of 0 to 10 where 0 is no effect and 10 is complete control
[4] = Preemergence, Rate 250 g/ha, scale of 0 to 10 where 0 is no effect and 10 is complete control
[5] = Preemergence, Rate 500 g/ha, scale of 0 to 10 where 0 is no effect and 10 is complete control
[6] = Rate 62 g/ha, Postemergence, scale 0 to 10 (0 no effect, 10 complete control)
[7] = Rate 125 g/ha, Postemergence, scale of 0 to 10 where 0 is no effect and 10 is complete control
[8] = Rate 250 g/ha, Postemergence, scale of 0 to 10 where 0 is no effect and 10 is complete control
[9] = Rate 125 g/ha, 0 to 100 scale (0 no effect, 100 complete control)
[10] = Rate 500 g/ha, 0 to 100 scale (0 no effect, 100 complete control)

COC(Cn1c(=O)on(C(=O)N(c2ccc(F)cc2)C(C)C)c1=O)OC [Compound 317]
Morningglory plant response rating (morningglory; [3]): 0 | Morningglory plant response rating (0 to 10 scale) (morningglory; Preemergence, Rate 125 g/ha): 0 | Morningglory plant response rating (morningglory; [4]): 0 | Morningglory plant response rating (morningglory; [5]): 0 | Morningglory plant response rating (morningglory; [6]): 1 | Morningglory plant response rating (morningglory; [7]): 3 | Plant response rating, Morningglory (morningglory; [8]): 3 | Rape plant response rating (rape; [3]): 0 | Rape plant response rating (0 to 10 scale) (rape; Preemergence, Rate 125 g/ha): 2 | Rape plant response rating (rape; [4]): 8 | Rape plant response rating (rape; [5]): 10 | Rape plant response rating (rape; [6]): 0 | Rape plant response rating (rape; [7]): 0 | Plant response rating, Rape (rape; [8]): 1 | Wheat plant response rating (wheat; [3]): 1 | Wheat plant response rating (0 to 10 scale) (wheat; Preemergence, Rate 125 g/ha): 2 | Wheat plant response rating (wheat; [4]): 7 | Wheat plant response rating (wheat; [5]): 8 | Wheat plant response rating (wheat; [6]): 0 | Wheat plant response rating (wheat; [7]): 1 | Plant response rating, Wheat (wheat; [8]): 5 | Ducksalad plant response rating (duck salad; Rate 1000 g/ha, scale 0 to 10 (0 no effect, 10 complete control)): 0 | Ducksalad plant response rating (duck salad; Rate 125 g/ha, flood test species, scale 0 to 10 where 0 is no effect and 10 is complete control): 0 | Ducksalad plant response rating (duck salad; Rate 250 g/ha, flood-test species, scale 0 to 10, 0 is no effect, 10 is complete control): 0 | Ducksalad plant response rating (duck salad; Rate 500 g/ha, flood test species, scale 0 to 10 (0 no effect, 10 complete control)): 0 | Plant response rating, Wheat (winter) (winter wheat [1]; Rate 125 g/ha): 70 | Plant response rating, Wheat (winter) (winter wheat [1]; Rate 250 g/ha): 95 | Plant response rating, Wheat (winter) (winter wheat [1]; Rate 500 g/ha): 95 | Plant response rating, Blackgrass (blackgrass; [9]): 50 | Plant response rating, Blackgrass (blackgrass; Rate 250 g/ha, 0 to 100 scale): 100 | Plant response rating, Blackgrass (blackgrass; [10]): 60 | Plant response rating, Green foxtail (green foxtail; [9]): 100 | Plant response rating, Green foxtail (green foxtail; Rate 250 g/ha, 0 to 100 scale): 100 | Plant response rating, Green foxtail (green foxtail; [10]): 100 | Plant response rating, I. Ryegrass (Italian ryegrass; [9]): 60 | Plant response rating, I. Ryegrass (Italian ryegrass; Rate 250 g/ha, 0 to 100 scale): 85 | Plant response rating, I. Ryegrass (Italian ryegrass; [10]): 95 | Plant response rating, Wheat (winter) (winter wheat [2]; [9]): 50 | Plant response rating, Wheat (winter) (winter wheat [2]; Rate 250 g/ha, 0 to 100 scale): 50 | Plant response rating, Wheat (winter) (winter wheat [2]; [10]): 60 | Plant response rating, Wild oat (wild oat; [9]): 60 | Plant response rating, Wild oat (wild oat; Rate 250 g/ha, 0 to 100 scale): 60 | Plant response rating, Wild oat (wild oat; [10]): 70 | Plant response rating, Barley (winter) (winter barley; [9]): 40 | Plant response rating, Barley (winter) (winter barley; Rate 250 g/ha, 0 to 100 scale, 0 no effect, 100 complete control): 50 | Plant response rating, Barley (winter) (winter barley; [10]): 70
